Experimental data published in PMC4459787 (Science (New York, N.Y.), 2014).
Ends that are not written are not given here.

Tests used:
human astrocytes = test: Nucleolar localisation by HA immunostaining in human astrocytes; type: cell-based; conditions: U2OS cancer cells and human astrocytes, HA antibody and Fibrillarin staining
U2OS cells [1] = test: Cell entry and nucleolar localisation by HA immunostaining in U2OS cells; type: cell-based; conditions: 10 μM, 30 min, fixed, HA antibody staining
EAAT2 transcript = test: RT-PCR of EAAT2 transcript splicing in human astrocytes; type: cell-based; conditions: for aberrant EAAT2 splicing: human astrocytes exposed to toxin until clear evidence of toxicity, PCR, fig. S6B
[2] = tested on: ribosomal RNA (45S precursor, 18S, 5.8S, 28S); test: qPCR of rRNA synthesis and processing in peptide-treated human astrocytes; type: cell-based; conditions: 12 hours
U2OS cells [3] = type: cell-based
[4] = type: in vitro ADME; conditions: cells or culture medium
[5] = tested on: pre-mRNA splicing (RAN GTPase, PTX3, NACA, GADD45A); type: cell-based; conditions: human astrocytes
[6] = target: mCherry:hnRNPA2 hydrogel droplets (low complexity domain of hnRNPA2) (Homo sapiens, UniProt P22626); test: Binding to mCherry:hnRNPA2 hydrogel droplets; conditions: GFP signal at the periphery of mCherry:hnRNPA2 hydrogel droplets; overnight incubation at 4°C
Sequence of mCherry:hnRNPA2 hydrogel droplets (low complexity domain of hnRNPA2) (P22626 193-353 limits assumed, one chain of several): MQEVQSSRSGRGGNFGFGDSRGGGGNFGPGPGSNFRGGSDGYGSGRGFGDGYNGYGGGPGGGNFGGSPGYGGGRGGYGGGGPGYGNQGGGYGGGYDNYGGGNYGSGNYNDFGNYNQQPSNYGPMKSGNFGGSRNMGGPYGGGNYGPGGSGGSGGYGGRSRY

CC(C)[C@H](NC(=O)[C@H](CC(=O)O)NC(=O)[C@H](Cc1ccc(O)cc1)NC(=O)[C@@H]1CCCN1C(=O)[C@H](Cc1ccc(O)cc1)NC(=O)[C@H](CCCNC(=N)N)NC(=O)CNC(=O)[C@H](CCCNC(=N)N)NC(=O)CNC(=O)[C@H](CCCNC(=N)N)NC(=O)CNC(=O)[C@H](CCCNC(=N)N)NC(=O)CNC(=O)[C@H](CCCNC(=N)N)NC(=O)CNC(=O)[C@H](CCCNC(=N)N)NC(=O)CNC(=O)[C@H](CCCNC(=N)N)NC(=O)CNC(=O)[C@H](CCCNC(=N)N)NC(=O)CNC(=O)[C@H](CCCNC(=N)N)NC(=O)CNC(=O)[C@H](CCCNC(=N)N)NC(=O)CNC(=O)[C@H](CCCNC(=N)N)NC(=O)CNC(=O)[C@H](CCCNC(=N)N)NC(=O)CNC(=O)[C@H](CCCNC(=N)N)NC(=O)CNC(=O)[C@H](CCCNC(=N)N)NC(=O)CNC(=O)[C@H](CCCNC(=N)N)NC(=O)CNC(=O)[C@H](CCCNC(=N)N)NC(=O)CNC(=O)[C@H](CCCNC(=N)N)NC(=O)CNC(=O)[C@H](CCCNC(=N)N)NC(=O)CNC(=O)[C@H](CCCNC(=N)N)NC(=O)CNC(=O)[C@H](CCCNC(=N)N)NC(=O)CN)C(=O)N1CCC[C@H]1C(=O)N[C@@H](CC(=O)O)C(=O)N[C@@H](Cc1ccc(O)cc1)C(=O)N[C@@H](C)C(=O)O [GR20]
nucleolar association (human astrocytes): associated prominently with nucleoli
cell entry and localisation (U2OS cells [1]): entered cells, migrated to the nucleus and bound to nucleoli

C=C1[C@@H](C)[C@H]2[C@H](Cc3ccccc3)NC(=O)[C@]23[C@H](OC(C)=O)/C=C/[C@@](C)(O)C(=O)[C@@H](C)C/C=C/[C@H]3[C@@H]1O [cytochalasin D]
aberrant EAAT2 splicing (EAAT2 transcript): None of the four toxins gave evidence of aberrant splicing

COc1cccc2c1C(=O)c1c(O)c3c(c(O)c1C2=O)C[C@@](O)(C(=O)CO)C[C@@H]3O[C@H]1C[C@H](N)[C@H](O)[C@H](C)O1 [doxorubicin]
aberrant EAAT2 splicing (EAAT2 transcript): None of the four toxins gave evidence of aberrant splicing

CN[C@@H]1C[C@H]2O[C@@](C)([C@@H]1OC)n1c3ccccc3c3c4c(c5c6ccccc6n2c5c31)C(=O)NC4 [staurosporin]
aberrant EAAT2 splicing (EAAT2 transcript): None of the four toxins gave evidence of aberrant splicing

CC(=O)O[C@H]1C(=O)[C@@]2(C)[C@H]([C@H](OC(=O)c3ccccc3)[C@]3(O)C[C@H](OC(=O)[C@H](O)[C@@H](NC(=O)c4ccccc4)c4ccccc4)C(C)=C1C3(C)C)[C@]1(OC(C)=O)CO[C@@H]1C[C@@H]2O [taxol]
aberrant EAAT2 splicing (EAAT2 transcript): None of the four toxins gave evidence of aberrant splicing

PRPRPRPRPRPRPRPRPRPRPRPRPRPRPRPRPRPRPRPRYPYDVPDYA [PR20]
nucleolar association (human astrocytes): associated prominently with nucleoli
attenuation of rRNA precursor, 3′ junction of 5.8S rRNA ([2]; 10 μM, qPCR): 40%
attenuation of rRNA precursor, third probe (5′ end of 5.8S rRNA) ([2]; 10 μM, qPCR): roughly 20%
elevation of rRNA precursor, 5′ transcribed spacer primers ([2]; 10 μM, qPCR): 20%
immature rRNA, first junctional probe (5′ end of 18S rRNA) ([2]; 10 μM, qPCR): elevation in immature rRNA
rRNA precursor, 5′ junction of 28S rRNA ([2]; 10 μM, qPCR): normal precursor levels
rRNA precursor, second junctional probe (3′ end of 18S rRNA) ([2]; 10 μM, qPCR): normal levels of rRNA precursor
28S rRNA level ([2]; 30 μM, qPCR): Slight reductions
drop of rRNA precursor, 3′ terminus of 5.8S rRNA ([2]; 30 μM, qPCR): 70%
reduction of the level of 5.8S rRNA ([2]; 30 μM, qPCR relative to vehicle): 70%
time to half-maximal impact on cell viability (U2OS cells [3]; 10 μM peptide, fig. S4E): roughly 36 hours
time to 50% cell death (U2OS cells [3]; 30 μM dose of the peptide, fig. S4F): 6 h
cell morphology (U2OS cells [3]; U2OS cells, 10 μM, within 24 hours): spindle-like phenotype
cell morphology and viability (U2OS cells [3]; U2OS cells, 30 μM, 24 hours): almost all cells were detached from the culture substrate and dead
aberrant EAAT2 splicing (exon 9-skipped form and intron 7 retention) (EAAT2 transcript; human astrocytes, 10 or 15 μM, 36 hours, RT-PCR): appeared in a concentration-dependent manner
half-life [4]: 72 h
cell entry and localisation (U2OS cells [1]): entered cells, migrated to the nucleus and bound to nucleoli
splicing of GADD45 mRNA ([5]; 6 hours, RT-PCR): include the full intronic sequences on both sides of exon 2
splicing of NACA mRNA ([5]; 6 hours, RT-PCR): contain a different 5′ UTR
splicing of PTX3 mRNA ([5]; 6 hours, RT-PCR): exon 2-skipping
splicing of RAN GTPase mRNA ([5]; 6 hours, RT-PCR): exon 2-skipping
expression of the ribosomal protein gene family ([5]; RNA-seq, P < 2.2e-16, Kolmogorov–Smirnov test): significantly up-regulated

green fluorescent protein [GFP]
binding to hnRNPA2 hydrogel droplets [6]: did not bind
